Tests used:
[1] = target: human GPR40 protein (Homo sapiens, UniProt O14842); test: GPR40 agonist binding inhibition (displacement of 3H-labeled propanoic acid radioligand); conditions: membrane protein including human GPR40, 3H-labeled propanoic acid radioligand, 25° C., 2 hours; read-out: Half maximal inhibitory concentration
Description: Measurement of 50% Inhibitory Concentration (ID50) for GPR40 Agonist Binding
To examine the efficacy of the compounds according to one exemplary embodiment of the present invention in modulating GPR40, the half maximal inhibitory concentrations (IC50) of the compounds according to one exemplary embodiment of the present invention were measured by Microbeta2™ (PerkinElmer Inc.) using a change in radiation dose emitted from ^3H-labeled propanoic acid (i.e., 3-(4-((2,6′-dimethyl-6-((4-(^3H))-phenylmethoxy)biphenyl-3-yl)methoxy)phenyl)propanoic acid), which is a radioactive isotope which binds to a human GPR40 protein, as an indicator.
Specifically, a test compound was prepared by serial dilution with DMSO, and 100 μL of a binding buffer (including 25 mM HEPES (pH 7.5), 5 mM MgCl2, 100 mM NaCl, and 0.1% free fatty acid BSA; Sigma-Aldrich Corp.) was put into each well of a 96-well transparent plate. Thereafter, each of the diluted compound, propanoic acid which was prepared by dissolving propanoic acid in DMSO to a concentration of 500 mM and not labeled with a radioactive isotope, and DMSO was dispensed at 5 μL per well. ^3H-labeled propanoic acid was dissolved in a binding buffer at a concentration of 1 nM and dispensed at 50 μL into the corresponding wells, and a membrane protein including a human GPR40 protein was dissolved in a binding buffer at a concentration of 20 μg/well and dispensed at 100 μL, into the corresponding wells.
After the dispensation was completed, the plate was incubated at a temperature of 25° C. and a rotary speed of 230 rpm for 2 hours while shaking. A human GPR40 complex was transferred to Filtermat A (PerkinElmer Inc.) using a cell harvester (PerkinElmer Inc.), washed 10 times with 50 mM tris-HCl, dried, and then scintillated using Meltilex (PerkinElmer Inc.). Thereafter, an emitted radiation dose was measured using Microbeta2™. The radiation doses emitted from the complex in the well containing 10 mM unlabeled propanoic acid and the complex in the well containing DMSO alone were set as 0% and 100%, respectively. Thus, a change curve for each of the radiation doses was plotted to calculate the half maximal inhibitory concentration of the test compound.

[2] = test system: male ZFDM rats; test: Hypoglycemic rate after oral glucose loading in rats; type: in vivo, rat; conditions: oral 0.1 to 30 mg/kg one hour before glucose loading (1.5 g/kg), blood glucose AUC 0 to 120 minutes versus control
Description: Measurement of Hypoglycemic Rate in Rats
An effect of the compound according to one exemplary embodiment of the present invention on blood glucose inhibition after glucose loading was examined in male ZFDM rats (Japan SLC, Inc.).
Specifically, male ZFDM rats (7 week-old) pre-fed for a week were fasted overnight, and used as an animal to be tested. A test compound was prepared into a 0.5% methylcellulose suspension, which was orally administered to rats at a dose of 0.1 to 30 mg/kg before an hour of glucose loading (1.5 g/kg). As the control, 0.5% methylcellulose was administered. After the glucose administration, blood was drawn from the rats' tails after 0, 15, 30, 60 and 120 minutes to measure a blood glucose level. The area under the curve (AUC) for compound treatment was calculated using a blood glucose change profile from t=0 to 120 minutes, and a hypoglycemic rate (%) for the control was calculated.

human GPR40 protein, sequence (O14842 whole entry): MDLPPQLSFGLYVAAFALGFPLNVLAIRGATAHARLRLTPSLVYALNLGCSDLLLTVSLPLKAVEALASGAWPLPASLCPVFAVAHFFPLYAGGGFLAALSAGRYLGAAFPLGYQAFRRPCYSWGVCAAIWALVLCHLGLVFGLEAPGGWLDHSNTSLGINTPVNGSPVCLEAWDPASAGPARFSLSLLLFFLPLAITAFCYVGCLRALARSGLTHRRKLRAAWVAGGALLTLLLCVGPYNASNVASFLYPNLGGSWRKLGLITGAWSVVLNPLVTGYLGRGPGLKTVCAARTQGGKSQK

IC50 [1] [µM]	SMILES	Hypoglycemic rate [2] [%]
0.116	CS(=O)(=O)CCCOc1ccc2c(c1)CCCc1ccc(CNc3ccc([C@H]4C[C@@H]4C(=O)O)cc3)cc1-2 [Example 6, (1S,2S)-2-(4-(((9-(3-(methylsulfonyl)propoxy)-6,7-dihydro-5H-dibenzo[a,c][7]annulen-2-yl)methyl)amino)phenyl)cyclopropanecarboxylic acid]	18.0
	O=C(O)[C@H]1C[C@@H]1c1ccc(NCc2ccc3c(c2)-c2ccc(OCC4CCS(=O)(=O)CC4)cc2CCC3)cc1 [Example 78, (1S,2S)-2-(4-(((9-((1,1-dioxidotetrahydro-2H-thiopyran-4-yl)methoxy)-6,7-dihydro-5H-dibenzo[a,c][7]annulen-2-yl)methyl)amino)phenyl)cyclopropanecarboxylic acid]	27.4

Source: patent publication US9643946B2, “Tricyclic compound and use thereof” (SK CHEMICALS CO., LTD., priority 2013, dated 2017)
